Assay results taken from ChEMBL document CHEMBL1275577, “Study of the in vitro activities of rifaximin and comparator agents against 536 anaerobic intestinal bacteria from the perspective of potential utility in pathology involving bowel flora” (Antimicrob Agents Chemother, 2009).
Values after ≈ are worked out from the molar mass of the structure shown.

Legend:
Assay type in all cases: functional
[1] = test system: Finegoldia magna; assay: Antimicrobial activity against Finegoldia magna by Wadsworth agar dilution method
[2] = test system: Bilophila wadsworthia; assay: Antimicrobial activity against Bilophila wadsworthia by Wadsworth agar dilution method in presence of 1% pyruvic acid
[3] = test system: Lactobacillus sp.; assay: Antimicrobial activity against Lactobacillus sp. by Wadsworth agar dilution method
[4] = test system: Fusobacterium necrophorum; assay: Antimicrobial activity against Fusobacterium necrophorum by Wadsworth agar dilution method
[5] = test system: Clostridium cocleatum; assay: Antimicrobial activity against Clostridium cocleatum by Wadsworth agar dilution method; conditions: Thomasclavelia cocleata
[6] = test system: Peptoniphilus harei; assay: Antimicrobial activity against Peptoniphilus harei by Wadsworth agar dilution method
[7] = test system: Lactiplantibacillus plantarum; assay: Antimicrobial activity against Lactobacillus plantarum by Wadsworth agar dilution method
[8] = test system: Bifidobacterium dentium; assay: Antimicrobial activity against Bifidobacterium dentium by Wadsworth agar dilution method
[9] = test system: Desulfovibrio piger; assay: Antimicrobial activity against Desulfovibrio piger by Wadsworth agar dilution method
[10] = test system: Prevotella bivia; assay: Antimicrobial activity against Prevotella bivia by Wadsworth agar dilution method
[11] = test system: Flavonifractor plautii; assay: Antimicrobial activity against Clostridium orbiscindens by Wadsworth agar dilution method
[12] = test system: Bifidobacterium pseudolongum; assay: Antimicrobial activity against Bifidobacterium pseudolongum by Wadsworth agar dilution method
[13] = test system: Anaerococcus prevotii; assay: Antimicrobial activity against Anaerococcus prevotii by Wadsworth agar dilution method
[14] = test system: Porphyromonas asaccharolytica; assay: Antimicrobial activity against Porphyromonas asaccharolyticus by Wadsworth agar dilution method
[15] = test system: Prevotella disiens; assay: Antimicrobial activity against Prevotella disiens by Wadsworth agar dilution method
[16] = test system: Bacteroides caccae; assay: Antimicrobial activity against Bacteroides caccae by Wadsworth agar dilution method
[17] = test system: Clostridium spiroforme; assay: Antimicrobial activity against Clostridium spiroforme by Wadsworth agar dilution method; conditions: Thomasclavelia spiroformis
[18] = test system: Clostridium beijerinckii; assay: Antimicrobial activity against Clostridium beijerinckii by Wadsworth agar dilution method
[19] = test system: Ruminococcus gnavus; assay: Antimicrobial activity against Ruminococcus gnavus by Wadsworth agar dilution method; conditions: Mediterraneibacter gnavus
[20] = test system: Clostridium subterminale; assay: Antimicrobial activity against Clostridium subterminale by Wadsworth agar dilution method
[21] = test system: Clostridium acetobutylicum; assay: Antimicrobial activity against Clostridium acetobutylicum by Wadsworth agar dilution method
[22] = test system: Peptoniphilus asaccharolyticus; assay: Antimicrobial activity against Peptoniphilus asaccharolyticus by Wadsworth agar dilution method
[23] = test system: Eubacterium rectale; assay: Antimicrobial activity against Eubacterium rectale by Wadsworth agar dilution method; conditions: Agathobacter rectalis
[24] = test system: Bacteroides stercoris; assay: Antimicrobial activity against Bacteroides stercoris by Wadsworth agar dilution method
[25] = test system: Porphyromonas uenonis; assay: Antimicrobial activity against Porphyromonas uenonis by Wadsworth agar dilution method
[26] = test system: Lactobacillus catenaformis; assay: Antimicrobial activity against Lactobacillus catenaformis by Wadsworth agar dilution method; conditions: Eggerthia catenaformis
[27] = test system: Clostridioides difficile; assay: Antimicrobial activity against Clostridium difficile by Wadsworth agar dilution method
[28] = test system: [Clostridium] innocuum; assay: Antimicrobial activity against Clostridium innocuum by Wadsworth agar dilution method
[29] = test system: Eggerthella lenta; assay: Antimicrobial activity against Eggerthella lenta by Wadsworth agar dilution method
[30] = test system: Atopobium minutum; assay: Antimicrobial activity against Atopobium minutum by Wadsworth agar dilution method
[31] = test system: Clostridium fallax; assay: Antimicrobial activity against Clostridium fallax by Wadsworth agar dilution method
[32] = test system: Porphyromonas; assay: Antimicrobial activity against Porphyromonas sp. by Wadsworth agar dilution method
[33] = test system: Clostridium symbiosum; assay: Antimicrobial activity against Clostridium symbiosum by Wadsworth agar dilution method
[34] = test system: Clostridium nexile; assay: Antimicrobial activity against Clostridium nexile by Wadsworth agar dilution method; conditions: Faecalimonas nexilis
[35] = test system: Fusobacterium mortiferum; assay: Antimicrobial activity against Clostridium rectum by Wadsworth agar dilution method
[36] = test system: Clostridium tertium; assay: Antimicrobial activity against Clostridium tertium by Wadsworth agar dilution method
[37] = test system: Actinomyces viscosus; assay: Antimicrobial activity against Actinomyces viscosus by Wadsworth agar dilution method
[38] = test system: Enterocloster clostridioformis; assay: Antimicrobial activity against Clostridium clostridioforme by Wadsworth agar dilution method
[39] = test system: Catenibacterium mitsuokai; assay: Antimicrobial activity against Catenibacterium mitsuokai by Wadsworth agar dilution method
[40] = test system: Blautia producta; assay: Antimicrobial activity against Ruminococcus productus by Wadsworth agar dilution method
[41] = test system: Eubacterium saburreum; assay: Antimicrobial activity against Eubacterium saburreum by Wadsworth agar dilution method; conditions: Lachnoanaerobaculum saburreum
[42] = test system: Anaerococcus tetradius; assay: Antimicrobial activity against Anaerococcus tetradius by Wadsworth agar dilution method
[43] = test system: Collinsella aerofaciens; assay: Antimicrobial activity against Colinsella aerofaciens by Wadsworth agar dilution method
[44] = test system: Tissierella praeacuta; assay: Antimicrobial activity against Clostridium hastiforme by Wadsworth agar dilution method
[45] = test system: Fusobacterium sp.; assay: Antimicrobial activity against Fusobacterium sp. by Wadsworth agar dilution method
[46] = test system: Eubacterium callanderi; assay: Antimicrobial activity against Eubacterium callanderi by Wadsworth agar dilution method
[47] = test system: Thomasclavelia ramosa; assay: Antimicrobial activity against Clostridium ramosum by Wadsworth agar dilution method

For `NC[C@@H]1O[C@H](O[C@H]2[C@@H](O)[C@H](O[C@@H]3[C@@H](O)[C@H](N)C[C@H](N)[C@H]3O[C@H]3O[C@H](CN)[C@@H](O)[C@H](O)[C@H]3N)O[C@@H]2CO)[C@H](N)[C@@H](O)[C@@H]1O` [FRAMYCETIN], the MIC50 [1] was 128 µg/mL (≈ 208 µM), the MIC90 [1] was 512 µg/mL (≈ 833 µM) and the MIC50 [2] was > 1020 µg/mL. The MIC90 [2] was > 1020 µg/mL, the MIC50 [3] was 128 µg/mL (≈ 208 µM) and the MIC90 [3] was 1020 µg/mL (≈ 1670 µM). For the same molecule, the MIC50 [4] was 512 µg/mL (≈ 833 µM), the MIC90 [4] was > 1020 µg/mL and the MIC50 [5] was 256 µg/mL (≈ 416 µM). For the same molecule, the MIC90 [5] was 1020 µg/mL (≈ 1670 µM), the MIC50 [6] was 128 µg/mL (≈ 208 µM) and the MIC90 [6] was 512 µg/mL (≈ 833 µM). The MIC50 [7] was 128 µg/mL (≈ 208 µM), the MIC90 [7] was 1020 µg/mL (≈ 1670 µM) and the MIC50 [8] was 128 µg/mL (≈ 208 µM). It also gave an MIC90 [8] of 1020 µg/mL (≈ 1670 µM), an MIC50 [9] of 256 µg/mL (≈ 416 µM) and an MIC90 [9] of 1020 µg/mL (≈ 1670 µM). For the same molecule, the MIC50 [10] was 512 µg/mL (≈ 833 µM), the MIC90 [10] was 1020 µg/mL (≈ 1670 µM) and the MIC50 [11] was 256 µg/mL (≈ 416 µM). It also gave an MIC90 [11] of 512 µg/mL (≈ 833 µM), an MIC50 [12] of 128 µg/mL (≈ 208 µM) and an MIC90 [12] of 1020 µg/mL (≈ 1670 µM). The MIC50 [13] was 128 µg/mL (≈ 208 µM), the MIC90 [13] was 512 µg/mL (≈ 833 µM) and the MIC50 [14] was 512 µg/mL (≈ 833 µM). For the same molecule, the MIC90 [14] was > 1020 µg/mL, the MIC50 [15] was 512 µg/mL (≈ 833 µM) and the MIC90 [15] was 1020 µg/mL (≈ 1670 µM). For the same molecule, the MIC50 [16] was > 1020 µg/mL, the MIC90 [16] was > 1020 µg/mL and the MIC50 [17] was 256 µg/mL (≈ 416 µM). The MIC90 [17] was 1020 µg/mL (≈ 1670 µM), the MIC50 [18] was 256 µg/mL (≈ 416 µM) and the MIC90 [18] was 1020 µg/mL (≈ 1670 µM). The MIC50 [19] was 128 µg/mL (≈ 208 µM), the MIC90 [19] was 512 µg/mL (≈ 833 µM) and the MIC50 [20] was 256 µg/mL (≈ 416 µM). It also gave an MIC90 [20] of 1020 µg/mL (≈ 1670 µM), an MIC50 [21] of 256 µg/mL (≈ 416 µM) and an MIC90 [21] of 1020 µg/mL (≈ 1670 µM). It also gave an MIC50 [22] of 128 µg/mL (≈ 208 µM), an MIC90 [22] of 512 µg/mL (≈ 833 µM) and an MIC50 [23] of 128 µg/mL (≈ 208 µM). The MIC90 [23] was 1020 µg/mL (≈ 1670 µM), the MIC50 [24] was > 1020 µg/mL and the MIC90 [24] was > 1020 µg/mL. The MIC50 [25] was 512 µg/mL (≈ 833 µM), the MIC90 [25] was > 1020 µg/mL and the MIC50 [26] was 128 µg/mL (≈ 208 µM). The MIC90 [26] was 1020 µg/mL (≈ 1670 µM), the MIC50 [27] was 256 µg/mL (≈ 416 µM) and the MIC90 [27] was 512 µg/mL (≈ 833 µM). For the same molecule, the MIC50 [28] was > 1020 µg/mL, the MIC90 [28] was > 1020 µg/mL and the MIC50 [29] was 128 µg/mL (≈ 208 µM). It also gave an MIC90 [29] of 1020 µg/mL (≈ 1670 µM), an MIC50 [30] of 128 µg/mL (≈ 208 µM) and an MIC90 [30] of 1020 µg/mL (≈ 1670 µM). The MIC50 [31] was 256 µg/mL (≈ 416 µM), the MIC90 [31] was 1020 µg/mL (≈ 1670 µM) and the MIC50 [32] was 512 µg/mL (≈ 833 µM). For the same molecule, the MIC90 [32] was > 1020 µg/mL, the MIC50 [33] was 256 µg/mL (≈ 416 µM) and the MIC90 [33] was 1020 µg/mL (≈ 1670 µM). For the same molecule, the MIC50 [34] was 256 µg/mL (≈ 416 µM), the MIC90 [34] was 1020 µg/mL (≈ 1670 µM) and the MIC50 [35] was 256 µg/mL (≈ 416 µM). The MIC90 [35] was 1020 µg/mL (≈ 1670 µM), the MIC50 [36] was 256 µg/mL (≈ 416 µM) and the MIC90 [36] was 1020 µg/mL (≈ 1670 µM). The MIC50 [37] was 128 µg/mL (≈ 208 µM), the MIC90 [37] was 1020 µg/mL (≈ 1670 µM) and the MIC50 [38] was 128 µg/mL (≈ 208 µM). The MIC90 [38] was 128 µg/mL (≈ 208 µM), the MIC50 [39] was 128 µg/mL (≈ 208 µM) and the MIC90 [39] was 1020 µg/mL (≈ 1670 µM). It also gave an MIC50 [40] of 128 µg/mL (≈ 208 µM), an MIC90 [40] of 512 µg/mL (≈ 833 µM) and an MIC50 [41] of 128 µg/mL (≈ 208 µM). It also gave an MIC90 [41] of 1020 µg/mL (≈ 1670 µM), an MIC50 [42] of 128 µg/mL (≈ 208 µM) and an MIC90 [42] of 512 µg/mL (≈ 833 µM). For the same molecule, the MIC50 [43] was 128 µg/mL (≈ 208 µM), the MIC90 [43] was 1020 µg/mL (≈ 1670 µM) and the MIC50 [44] was 256 µg/mL (≈ 416 µM). The MIC90 [44] was 1020 µg/mL (≈ 1670 µM), the MIC50 [45] was 512 µg/mL (≈ 833 µM) and the MIC90 [45] was > 1020 µg/mL. For the same molecule, the MIC50 [46] was 128 µg/mL (≈ 208 µM), the MIC90 [46] was 1020 µg/mL (≈ 1670 µM) and the MIC50 [47] was 256 µg/mL (≈ 416 µM). For the same molecule, the MIC90 [47] was 1020 µg/mL (≈ 1670 µM).
